Assay [1] has as its system T-Rex 293 cell line SC3 cells lacking increased expression of androgen receptor protein. Put plainly: Cellular growth inhibition, T-Rex 293 SC3 cells without doxycycline (no increased androgen receptor expression), CellTiter-Glo. It counts as cell-based. To be noted: T-Rex 293 SC3 cells not exposed to doxycycline (no increased androgen receptor expression), 72 hours. The method in brief: (§1)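 Growth inhibition is measured in an inducible AR-expressing T-Rex 293 clone, SC3, cultured with or without 10 ng/mL doxycycline in hormone-depleted medium. Test compounds are applied for 72 hours. GI50 values derive from CellTiter-Glo 2.0 signal fitted by four-parameter regression.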
(In general: In ATP-based viability assays light output follows the ATP content of the culture.)

Another assay relates to VCaP cells. Description: Cellular growth inhibition assay for VCaP cells, CellTiter-Glo. It counts as cell-based, human. Conditions: 72 hours. The method in brief:
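GI50 values come from four-parameter curve fits of luminescence data normalized to a zero baseline. Compound, in medium with 0.5% DMSO, was added one day after plating and left for 72 h before CellTiter-Glo 2.0 addition.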

For another assay, the system named is T47D cells. Put plainly: Cellular Growth Inhibition Assay for T47D Cells (CellTiter-Glo). It is filed as cell-based, human. Conditions: 72 hours. The method in brief:
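GI50 values derive from four-parameter regression of CellTiter-Glo 2.0 luminescence, using zero luminescence as baseline. Human breast cancer T47D cells (3000/well; DMEM, 10% FBS, 0.2 units/mL insulin) were exposed for 72 h to compound dilutions at 0.5% DMSO, with dosing starting 24 h after seeding.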

Assay [2] concerns T-Rex 293 cell line SC3 cells having increased expression of androgen receptor protein due to exposure to doxycycline. Description: Cellular growth inhibition, T-Rex 293 SC3 cells with doxycycline (increased androgen receptor expression), CellTiter-Glo. It counts as cell-based. Conditions: T-Rex 293 SC3 cells with 10 ng/mL doxycycline (increased androgen receptor expression), 72 hours, CellTiter-Glo 2.0. The gist of the method: as §1

In the case of `CN(CCCc1ccc(Oc2ccc(C(C)(C)O)cc2-c2cn(C)c(=O)c3[nH]ccc23)cc1)c1ncc(C(=O)N[C@H]2C(C)(C)[C@H](Oc3ccc(C#N)c(Cl)c3)C2(C)C)cn1` [Compound I-211], the GI50 (in assay [1]; in the assay on VCaP cells (Homo sapiens); in the assay with T47D cells (Homo sapiens); in assay [2]) was under 500 nM in each case.

With `CCS(=O)(=O)Nc1ccc(Oc2cccc(OC3CCC4(CC3)CCN(c3ncc(C(=O)N[C@H]5C(C)(C)[C@H](Oc6ccc(C#N)c(Cl)c6)C5(C)C)cn3)CC4)c2)c(-c2cn(C)c(=O)c3[nH]ccc23)c1` [Compound I-45], the GI50 in assay [1] was over 3000 nM; in the assay on VCaP cells (Homo sapiens), under 500 nM; in the assay on T47D cells (Homo sapiens), under 500 nM; in assay [2] it was under 500 nM.

As for `Cn1cc(-c2cc(C(C)(C)O)ccc2Oc2cccc(CCOC3CCN(c4ncc(C(=O)N[C@H]5C(C)(C)[C@H](Oc6ccc(C#N)c(Cl)c6)C5(C)C)cn4)CC3)c2)c2cc[nH]c2c1=O` [Compound I-193], the GI50 (in assay [1]; with VCaP cells; with T47D cells; in assay [2]) was under 500 nM throughout.

As to `CN(c1ccc(Oc2cccc(N3CC(N4CCN(c5ncc(C(=O)N[C@H]6C(C)(C)[C@H](Oc7ccc(C#N)c(Cl)c7)C6(C)C)cn5)CC4)C3)c2F)c(-c2cn(C)c(=O)c3[nH]ccc23)c1)S(=O)(=O)C1CC1` [Compound I-91], the concentration for 50% growth inhibition (GI50) was over 3000 nM in assay [1], under 500 nM in the assay on VCaP cells (Homo sapiens), 500 to 1500 nM in the assay on T47D cells (Homo sapiens) and under 500 nM in assay [2].

Turning to `CCS(=O)(=O)Nc1ccc(Oc2cccc(OCCOC3CCN(c4ccc(C(=O)N[C@H]5C(C)(C)[C@H](Oc6ccc(C#N)c(Cl)c6)C5(C)C)nn4)CC3)c2)c(-c2cn(C)c(=O)c3[nH]ccc23)c1` [Compound I-11], the concentration for 50% growth inhibition (GI50) (in assay [1]; with VCaP cells (Homo sapiens); in assay [2]) was under 500 nM each time.

On to `CCS(=O)(=O)Cc1ccc(Oc2cccc(OCCOC3CCN(c4ncc(C(=O)N[C@H]5C(C)(C)[C@H](Oc6ccc(C#N)c(Cl)c6)C5(C)C)cn4)CC3)c2)c(-c2cn(C)c(=O)c3[nH]ccc23)c1` [Compound I-54, N-((1r, 3r)-3-(3-chloro-4-cyanophenoxy)-2,2,4,4-tetramethylcyclobutyl)-2-(4-(2-(3-(4-((ethylsulfonyl)methyl)-2-(6-methyl-7-oxo-6,7-dihydro-1H-pyrrolo[2,3-c]pyridin-4-yl)phenoxy)phenoxy)ethoxy)piperidin-1-yl)pyrimidine-5-carboxamide], for which the GI50 (in assay [1]; with VCaP cells (Homo sapiens); in the assay on T47D cells (Homo sapiens); in assay [2]) was under 500 nM throughout.

In the case of `Cn1cc(-c2cc(C(C)(C)O)ccc2Oc2cccc(N3CC(N4CCN(c5ncc(C(=O)N[C@H]6C(C)(C)[C@H](Oc7ccc(C#N)c(Cl)c7)C6(C)C)cn5)CC4)C3)c2F)c2cc[nH]c2c1=O` [Compound I-92, N-((1r, 3r)-3-(3-chloro-4-cyanophenoxy)-2,2,4,4-tetramethylcyclobutyl)-2-(4-(1-(2-fluoro-3-(4-(2-hydroxypropan-2-yl)-2-(6-methyl-7-oxo-6,7-dihydro-1H-pyrrolo[2,3-c]pyridin-4-yl)phenoxy)phenyl)azetidin-3-yl)piperazin-1-yl)pyrimidine-5-carboxamide], the GI50 (in assay [1]; in the assay with VCaP cells (Homo sapiens); with T47D cells (Homo sapiens); in assay [2]) was under 500 nM in each case.

Consider `Cn1cc(-c2cc(C(C)(C)O)ccc2Oc2cccc(OCCN3CCN(c4ncc(C(=O)N[C@H]5C(C)(C)[C@H](Oc6ccc(C#N)c(Cl)c6)C5(C)C)cn4)CC3)c2F)c2cc[nH]c2c1=O` [Compound I-99], for which the concentration for 50% growth inhibition (GI50) in assay [1] is under 500 nM; with VCaP cells (Homo sapiens), under 500 nM; in the assay on T47D cells (Homo sapiens) it was 500 to 1500 nM; in assay [2] it was under 500 nM.

Turning to `Cn1cc(-c2cc(C(C)(C)O)ccc2Oc2ccc(N3CC4(C3)CN(c3ncc(C(=O)N[C@H]5C(C)(C)[C@H](Oc6ccc(C#N)c(Cl)c6)C5(C)C)cn3)CCO4)cc2)c2cc[nH]c2c1=O` [Compound I-212], the GI50 was 500 to 1500 nM in assay [1], 1500 to 3000 nM with VCaP cells, 500 to 1500 nM in the assay on T47D cells and under 500 nM in assay [2].

As to `CCS(=O)(=O)Nc1ccc(Oc2cccc(OCCOC3CCN(c4ncc(C(=O)N[C@H]5C(C)(C)[C@H](Oc6ccc(C#N)c(Cl)c6)C5(C)C)cn4)CC3)c2)c(-c2cn(C)c(=O)c3[nH]ccc23)c1` [Compound I-6], the GI50 (in assay [1]; with VCaP cells (Homo sapiens); in the assay on T47D cells (Homo sapiens); in assay [2]) was under 500 nM throughout.

As for `Cn1cc(-c2cc(N)ccc2Oc2cccc(OCCOC3CCN(c4ncc(C(=O)N[C@H]5C(C)(C)[C@H](Oc6ccc(C#N)c(Cl)c6)C5(C)C)cn4)CC3)c2)c2cc[nH]c2c1=O` [Compound I-62, 2-(4-(2-(3-(4-amino-2-(6-methyl-7-oxo-6,7-dihydro-1H-pyrrolo[2,3-c]pyridin-4-yl)phenoxy)phenoxy)ethoxy)piperidin-1-yl)-N-((1r, 3r)-3-(3-chloro-4-cyanophenoxy)-2,2,4,4-tetramethylcyclobutyl)pyrimidine-5-carboxamide], the 50% growth inhibitory concentration (GI50) in assay [1] was over 3000 nM; in the assay with VCaP cells (Homo sapiens), under 500 nM; in the assay with T47D cells (Homo sapiens), 500 to 1500 nM; in assay [2] it was under 500 nM.

On to `CCS(=O)(=O)Nc1ccc(Oc2cccc(N3CC(OC4CCN(c5ncc(C(=O)N[C@H]6C(C)(C)[C@H](Oc7ccc(C#N)c(Cl)c7)C6(C)C)cn5)CC4)C3)c2)c(-c2cn(C)c(=O)c3[nH]ccc23)c1` [Compound I-80], for which the GI50 (in assay [1]; in the assay with VCaP cells (Homo sapiens); in the assay on T47D cells (Homo sapiens); in assay [2]) was under 500 nM in each case.

Regarding `CN(CC1CCN(c2ncc(C(=O)N[C@H]3C(C)(C)[C@H](Oc4ccc(C#N)c(Cl)c4)C3(C)C)cn2)CC1)C1(c2ccc(Oc3ccc(C(C)(C)O)cc3-c3cn(C)c(=O)c4[nH]ccc34)cc2)COC1` [Compound I-255], the concentration for 50% growth inhibition (GI50) is 500 to 1500 nM in assay [1], under 500 nM in the assay with VCaP cells, under 500 nM in the assay on T47D cells and under 500 nM in assay [2].

On to `CCS(=O)(=O)Nc1ccc(Oc2cccc(N(C)C3CN(CC4CCN(c5ncc(C(=O)NC6C(C)(C)C(Oc7ccc(C#N)c(Cl)c7)C6(C)C)cn5)CC4)C3)c2)c(-c2cn(C)c(=O)c3[nH]ccc23)c1` (stereo not drawn) [Compound I-39], for which the GI50 (in assay [1]; in the assay with VCaP cells (Homo sapiens); in assay [2]) was under 500 nM in each case.

As for `CCS(=O)(=O)c1ccc(Oc2cccc(OCCOC3CCN(c4ccc(C(=O)N[C@H]5C(C)(C)[C@H](Oc6ccc(C#N)c(Cl)c6)C5(C)C)cn4)CC3)c2F)c(-c2cn(C)c(=O)c3[nH]ccc23)c1` [Compound I-185], the GI50 (in assay [1]; in the assay with VCaP cells (Homo sapiens); in assay [2]) was under 500 nM throughout.

`CCS(=O)(=O)Nc1ccc(Oc2cccc(OCCOCCOC3CCN(c4ncc(C(=O)N[C@H]5C(C)(C)[C@H](Oc6ccc(C#N)c(Cl)c6)C5(C)C)cn4)CC3)c2)c(-c2cn(C)c(=O)c3[nH]ccc23)c1` [Compound I-13]: the GI50 (in assay [1]; in the assay with VCaP cells (Homo sapiens); in assay [2]) was under 500 nM each time.

Turning to `CCS(=O)(=O)Nc1ccc(Oc2cccc(OCCN(C)c3ncc(C(=O)N[C@H]4C(C)(C)[C@H](Oc5ccc(C#N)c(Cl)c5)C4(C)C)cn3)c2)c(-c2cn(C)c(=O)c3[nH]ccc23)c1` [Compound I-1, N-((1r, 3r)-3-(3-chloro-4-cyanophenoxy)-2,2,4,4-tetramethylcyclobutyl)-2-((2-(3-(4-(ethylsulfonamido)-2-(6-methyl-7-oxo-6,7-dihydro-1H-pyrrolo[2,3-c]pyridin-4-yl)phenoxy)phenoxy)ethyl)(methyl)amino)pyrimidine-5-carboxamide], the GI50 was 500 to 1500 nM in assay [1], under 500 nM with VCaP cells (Homo sapiens) and under 500 nM in assay [2].

With `CCS(=O)(=O)Nc1ccc(Oc2cccc(OCCOC3CCN(c4ncc(C(=O)N[C@H]5C(C)(C)[C@H](Oc6ccc(C#N)c(Cl)c6)C5(C)C)cn4)CC3)n2)c(-c2cn(C)c(=O)c3[nH]ccc23)c1` [Compound I-47, N-((1r, 3r)-3-(3-chloro-4-cyanophenoxy)-2,2,4,4-tetra-methylcyclobutyl)-2-(4-(2-((6-(4-(ethylsulfonamido)-2-(6-methyl-7-oxo-6,7-dihydro-1H-pyrrolo[2,3-c]pyridin-4-yl)phenoxy)pyridin-2-yl)oxy)ethoxy)piperidin-1-yl)pyrimidine-5-carboxamide], the concentration for 50% growth inhibition (GI50) (in assay [1]; in the assay on VCaP cells (Homo sapiens); in assay [2]) was under 500 nM in each case.

On to `CCS(=O)(=O)Nc1ccc(Oc2cccc(OCCOCCOCCOCCOCCOC3CCN(c4ncc(C(=O)N[C@H]5C(C)(C)[C@H](Oc6ccc(C#N)c(Cl)c6)C5(C)C)cn4)CC3)c2)c(-c2cn(C)c(=O)c3[nH]ccc23)c1` [Compound I-8], for which the GI50 (in assay [1]; in the assay on VCaP cells (Homo sapiens); in assay [2]) was under 500 nM each time.

As for `CCS(=O)(=O)Nc1ccc(Oc2cccc(CCOC3CCN(c4ncc(C(=O)N[C@H]5C(C)(C)[C@H](Oc6ccc(C#N)c(Cl)c6)C5(C)C)cn4)CC3)c2)c(-c2cn(C)c(=O)c3[nH]ccc23)c1` [Compound I-19], the GI50 (in assay [1]; in the assay on VCaP cells (Homo sapiens); in assay [2]) was under 500 nM in each case.

As to `CCS(=O)(=O)Nc1ccc(Oc2cccc(OCCOCCOCCOCCOCCN(C)c3ncc(C(=O)N[C@H]4C(C)(C)[C@H](Oc5ccc(C#N)c(Cl)c5)C4(C)C)cn3)c2)c(-c2cn(C)c(=O)c3[nH]ccc23)c1` [Compound I-3], the GI50 in assay [1] is over 3000 nM; in the assay on VCaP cells (Homo sapiens), under 500 nM; in assay [2] it was under 500 nM.

Usually GI50 stands for the concentration at which growth is held to half of that of the control. A low value points to more potent growth inhibition.

For the origin of these results see patent US20250388605A1, “HETEROBIFUNCTIONAL COMPOUNDS AND METHODS OF TREATING DISEASE” (Halda Therapeutics OpCo, Inc., priority 2022, published 2025).
